Laboratory results from patent US10894784B2, “Heteroarylbenzimidazole compounds” (BAYER PHARMA AKTIENGESELLSCHAFT, priority 2015, dated 2021).
pIC50: −log10 of the molar value.

Target: TBK1 (Homo sapiens (Human), UniProt Q9UHD2)
Assay: TBK1 low ATP kinase assay (in vitro assay 1)
Assay type: biochemical
Conditions: in vitro assay 1, read-out: TBK1 low ATP kinase assay IC50

Sequence of TBK1 (Q9UHD2 whole entry): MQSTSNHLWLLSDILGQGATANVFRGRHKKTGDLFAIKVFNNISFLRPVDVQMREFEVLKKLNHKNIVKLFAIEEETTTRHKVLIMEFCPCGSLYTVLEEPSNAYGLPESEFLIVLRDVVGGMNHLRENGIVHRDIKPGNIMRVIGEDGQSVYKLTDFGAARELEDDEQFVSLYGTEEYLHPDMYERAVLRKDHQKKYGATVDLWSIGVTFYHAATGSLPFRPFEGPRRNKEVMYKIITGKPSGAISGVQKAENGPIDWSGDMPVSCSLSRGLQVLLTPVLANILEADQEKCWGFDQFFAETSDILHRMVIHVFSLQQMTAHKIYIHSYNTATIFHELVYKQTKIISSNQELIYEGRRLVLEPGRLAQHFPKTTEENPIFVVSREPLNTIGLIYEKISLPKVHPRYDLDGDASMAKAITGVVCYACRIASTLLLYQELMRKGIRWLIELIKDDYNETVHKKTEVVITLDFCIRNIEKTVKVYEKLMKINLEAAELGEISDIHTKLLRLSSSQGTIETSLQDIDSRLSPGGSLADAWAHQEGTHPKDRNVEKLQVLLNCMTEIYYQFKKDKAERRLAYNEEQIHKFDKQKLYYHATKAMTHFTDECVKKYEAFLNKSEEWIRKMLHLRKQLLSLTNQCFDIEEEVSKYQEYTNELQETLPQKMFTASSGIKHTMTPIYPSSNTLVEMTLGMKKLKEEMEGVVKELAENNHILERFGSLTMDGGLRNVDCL

Row | Compound | pIC50
1 | Cn1cc(-c2ccc3nc(Nc4cc(CN5CCN(C(=O)CC6CC6)CC5)ccn4)[nH]c3c2)cn1 [Example 37.02, 2-cyclopropyl-1-{4-[(2-{[6-(1-methyl-1H-pyrazol-4-yl)-1H-benzimidazol-2-yl]amino}pyridin-4-yl)methyl]piperazin-1-yl}ethanone] | 7.20
2 | Cc1noc(-c2ccc3nc(Nc4cc(CN5CCN(C(=O)c6ccccc6)CC5)ccn4)[nH]c3c2)n1 [Example 101.10, {4-[(2-{[6-(3-methyl-1,2,4-oxadiazol-5-yl)-1H-benzimidazol-2-yl]amino}pyridin-4-yl)methyl]piperazin-1-yl}(phenyl)methanone] | 6.74
3 | CC(c1ccnc(Nc2nc3ccc(-c4cc(N5CC(C(F)(F)F)C5)ncn4)cc3[nH]2)c1)N1CCN(C(=O)OC(C)(C)C)CC1 (single isomer, unassigned) [Example 164.01, tert-butyl 4-[(1R or 1S)-1-{2-[(6-{6-[3-(trifluoromethyl)azetidin-1-yl]pyrimidin-4-yl}-1H-benzimidazol-2-yl)amino]pyridin-4-yl}ethyl]piperazine-1-carboxylate] | 8.26
4 | CC(=O)c1cc(-c2ccc3nc(Nc4cc(CN5CCN(C(=O)CC(F)(F)F)CC5)ccn4)[nH]c3c2)ncn1 [Example 97.03, 1-{4-[(2-{[6-(6-acetylpyrimidin-4-yl)-1H-benzimidazol-2-yl]amino}pyridin-4-yl)methyl]piperazin-1-yl}-3,3,3-trifluoropropan-1-one] | 7.54
5 | Cc1nccc(-c2ccc3nc(Nc4cc(CN5CCN(C(=O)OC(C)(C)C)CC5)ccn4)[nH]c3c2)c1Cl [Example 130.01, tert-butyl 4-[(2-{[6-(3-chloro-2-methylpyridin-4-yl)-1H-benzimidazol-2-yl]amino}pyridin-4-yl)methyl]piperazine-1-carboxylate] | 6.05
6 | CN(C)c1ccnc(-c2ccc3nc(Nc4cc(CN5CCN(C(=O)C6CC6)CC5)ccn4)[nH]c3c2)n1 [Example 181.03, cyclopropyl(4-{[2-({6-[4-(dimethylamino)pyrimidin-2-yl]-1H-benzimidazol-2-yl}amino)pyridin-4-yl]methyl}piperazin-1-yl)methanone] | 6.44
7 | Cn1ccc(-c2ccc3nc(Nc4cc(CN5CCN(C(=O)CC6CC6)CC5)ccn4)[nH]c3c2)n1 [Example 40.02, 2-cyclopropyl-1-{4-[(2-{[6-(1-methyl-1H-pyrazol-3-yl)-1H-benzimidazol-2-yl]amino}pyridin-4-yl)methyl]piperazin-1-yl}ethanone] | 5.90
8 | CC(c1ccnc(Nc2nc3ccc(-c4cnn(CC5CCC5)c4)cc3[nH]2)c1)N1CCN(C(=O)OC(C)(C)C)CC1 (single isomer, unassigned) [Example 59.01.01, tert-butyl 4-{(1R or 1S)-1-[2-({6-[1-(cyclobutylmethyl)-1H-pyrazol-4-yl]-1H-benzimidazol-2-yl}amino)pyridin-4-yl]ethyl}piperazine-1-carboxylate] | 7.85
9 | COc1cncnc1-c1ccc2nc(Nc3cc(C(C)N4CCN(C(=O)CC5CC5)CC4)ccn3)[nH]c2c1 (single isomer, unassigned) [Example 35.03.02.A, 2-cyclopropyl-1-{4-[(1R or 1S)-1-(2-{[6-(5-methoxypyrimidin-4-yl)-1H-benzimidazol-2-yl]amino}pyridin-4-yl)ethyl]piperazin-1-yl}ethanone] | 8.08
10 | Cc1noc(-c2ccc3nc(Nc4cc(CN5CCN(C(=O)C6CC6)C[C@H]5C)ccn4)[nH]c3c2)n1 [Example 16.03.04, cyclopropyl{(3R)-3-methyl-4-[(2-{[6-(3-methyl-1,2,4-oxadiazol-5-yl)-1H-benzimidazol-2-yl]amino}pyridin-4-yl)methyl]piperazin-1-yl}methanone] | 7.26
11 | CCOc1c(-c2ccncc2OC)ccc2nc(Nc3cc(CN4CCN(C(=O)CC(F)(F)F)CC4)ccn3)[nH]c12 [Example 51.01, 1-{4-[(2-{[7-ethoxy-6-(3-methoxypyridin-4-yl)-1H-benzimidazol-2-yl]amino}pyridin-4-yl)methyl]piperazin-1-yl}-3,3,3-trifluoropropan-1-one] | 6.83
12 | CC(c1ccnc(Nc2nc3ccc(-c4cnn(CC5CC(F)(F)C5)c4)cc3[nH]2)c1)N1CCN(C(=O)CC(F)(F)F)CC1 (single isomer, unassigned) [Example 169.02, 1-{4-[(1R or 1S)-1-{2-[(6-{1-[(3,3-difluorocyclobutyl)methyl]-1H-pyrazol-4-yl}-1H-benzimidazol-2-yl)amino]pyridin-4-yl}ethyl]piperazin-1-yl}-3,3,3-trifluoropropan-1-one] | 7.94
13 | COc1cnccc1-c1ccc2nc(Nc3cc(CN4CCN(C(=O)C5(C(F)(F)F)CC5)CC4)ccn3)[nH]c2c1 [Example 04.07, {4-[(2-{[6-(3-methoxypyridin-4-yl)-1H-benzimidazol-2-yl]amino}pyridin-4-yl)methyl]piperazin-1-yl}[1-(trifluoromethyl)cyclopropyl]methanone] | 8.00
14 | Cc1c(-c2ccc3nc(Nc4cc(CN5CCN(C(=O)OC(C)(C)C)CC5)ccn4)[nH]c3c2)ncnc1C(F)(F)F [Example 183.01, tert-butyl 4-{[2-({6-[5-methyl-6-(trifluoromethyl)pyrimidin-4-yl]-1H-benzimidazol-2-yl}amino)pyridin-4-yl]methyl}piperazine-1-carboxylate] | 5.14
15 | CC(c1ccnc(Nc2nc3ccc(-c4cc(N5CC(C(F)(F)F)C5)ncn4)cc3[nH]2)c1)N1CCN(C(=O)C2(C(F)(F)F)CC2)CC1 (single isomer, unassigned) [Example 164.04, {4-[(1R or 1S)-1-{2-[(6-{6-[3-(trifluoromethyl)azetidin-1-yl]pyrimidin-4-yl}-1H-benzimidazol-2-yl)amino]pyridin-4-yl}ethyl]piperazin-1-yl}[1-(trifluoromethyl)cyclopropyl]methanone] | 9.08
16 | Cc1noc(-c2ccc3nc(Nc4cc(CN5C[C@@H](C)N(C(=O)C6CC6)C[C@@H]5C)ccn4)[nH]c3c2)n1 [Example 16.02.04, cyclopropyl{(2R,5S)-2,5-dimethyl-4-[(2-{[6-(3-methyl-1,2,4-oxadiazol-5-yl)-1H-benzimidazol-2-yl]amino}pyridin-4-yl)methyl]piperazin-1-yl}methanone] | 6.57
17 | CC(C)c1cc(-c2ccc3nc(Nc4cc(CN5CCN(C(=O)CC(F)(F)F)CC5)ccn4)[nH]c3c2)ncn1 [Example 78.01, 3,3,3-trifluoro-1-(4-{[2-({6-[6-(propan-2-yl)pyrimidin-4-yl]-1H-benzimidazol-2-yl}amino)pyridin-4-yl]methyl}piperazin-1-yl)propan-1-one] | 7.66
18 | COc1cc(-c2ccc3nc(Nc4cc(CN5CCN(C(=O)CC(F)(F)F)CC5)ccn4)[nH]c3c2)nc(C)n1 [Example 176.02, 3,3,3-trifluoro-1-{4-[(2-{[6-(6-methoxy-2-methylpyrimidin-4-yl)-1H-benzimidazol-2-yl]amino}pyridin-4-yl)methyl]piperazin-1-yl}propan-1-one] | 5.45
19 | CC(c1ccnc(Nc2nc3ccc(-c4cnn(CC5CC(F)(F)C5)c4)cc3[nH]2)c1)N1CCN(C(=O)C2CC2)CC1 (single isomer, unassigned) [Example 169.03, cyclopropyl{4-[(1R or 1S)-1-{2-[(6-{1-[(3,3-difluorocyclobutyl)methyl]-1H-pyrazol-4-yl}-1H-benzimidazol-2-yl)amino]pyridin-4-yl}ethyl]piperazin-1-yl}methanone] | 7.78
20 | O=C(CC(F)(F)F)N1CCN(Cc2ccnc(Nc3nc4ccc(-c5nnc(CC6CCC6)o5)cc4[nH]3)c2)CC1 [Example 126.02, 1-(4-{[2-({6-[5-(cyclobutylmethyl)-1,3,4-oxadiazol-2-yl]-1H-benzimidazol-2-yl}amino)pyridin-4-yl]methyl}piperazin-1-yl)-3,3,3-trifluoropropan-1-one] | 8.41
21 | CCN(C)c1cc(-c2ccc3nc(Nc4cc(CN5CCN(C(=O)OC(C)(C)C)CC5)ccn4)[nH]c3c2)ncn1 [Example 148.01, tert-butyl 4-({2-[(6-{6-[ethyl(methyl)amino]pyrimidin-4-yl}-1H-benzimidazol-2-yl)amino]pyridin-4-yl}methyl)piperazine-1-carboxylate] | 7.60
22 | Cc1noc(-c2ccc3nc(Nc4cc(CN5CCN(c6ccc(C#N)cc6)CC5)ccn4)[nH]c3c2)n1 [Example 101.18, 4-{4-[(2-{[6-(3-methyl-1,2,4-oxadiazol-5-yl)-1H-benzimidazol-2-yl]amino}pyridin-4-yl)methyl]piperazin-1-yl}benzonitrile] | 5.82
23 | COc1c(-c2ccc3nc(Nc4cc(C(C)N5CCN(C(=O)CC(F)(F)F)CC5)ccn4)[nH]c3c2)ncnc1N1CC(F)(F)C1 (single isomer, unassigned) [Example 113.02, 1-(4-{(1R or 1S)-1-[2-({6-[6-(3,3-difluoroazetidin-1-yl)-5-methoxypyrimidin-4-yl]-1H-benzimidazol-2-yl}amino)pyridin-4-yl]ethyl}piperazin-1-yl)-3,3,3-trifluoropropan-1-one] | 8.80
24 | CC(c1ccnc(Nc2nc3ccc(-c4cnn(CC5CCC5)c4)c(F)c3[nH]2)c1)N1CCN(C(=O)CC(F)(F)F)CC1 (single isomer, unassigned) [Example 171.02, 1-(4-{(1R or 1S)-1-[2-({6-[1-(cyclobutylmethyl)-1H-pyrazol-4-yl]-7-fluoro-1H-benzimidazol-2-yl}amino)pyridin-4-yl]ethyl}piperazin-1-yl)-3,3,3-trifluoropropan-1-one] | 8.23
25 | CC(C)(C)OC(=O)N1CCN(Cc2ccnc(Nc3nc4ccc(-c5c(F)cncc5Cl)cc4[nH]3)c2)CC1 [Example 132.01, tert-butyl 4-[(2-{[6-(3-chloro-5-fluoropyridin-4-yl)-1H-benzimidazol-2-yl]amino}pyridin-4-yl)methyl]piperazine-1-carboxylate] | 6.74
26 | COc1cc(-c2ccc3nc(Nc4cc(C(C)N5CCN(C(=O)CC(F)(F)F)CC5)ccn4)[nH]c3c2)ncn1 (single isomer, unassigned) [Example 34.03.01.B, 3,3,3-trifluoro-1-{4-[(1S or 1R)-1-(2-{[6-(6-methoxypyrimidin-4-yl)-1H-benzimidazol-2-yl]amino}pyridin-4-yl)ethyl]piperazin-1-yl}propan-1-one] | 7.30
